Assay results taken from EPA's ToxRefDB 2.

Key:
mouse [1] = settings: Carcinogenicity; b6c3f1; Oral; Feed; dose end: 96 week; group: systemic; systemic / pathology microscopic / stomach / adenoma + systemic / in life observation / body weight / body weight + systemic / in life …
rat [2] = settings: Combined chronic toxicity/carcinogenicity; fischer; Oral; Feed; dose end: 104 week; group: systemic; systemic / pathology microscopic / stomach / adenocarcinoma + systemic / pathology microscopic / stomach / adenoma + systemic / in life …
rat [3] = settings: Multigenerational reproductive toxicity study; sprague dawley; Oral; Gavage/Intubation; dose end: 1 generation; group: parental; systemic / in life observation / body weight / body weight gain + systemic / in life observation / clinical signs / skin discoloration + …
rat [4] = settings: Peri- and post-natal toxicity study (Segment III), sprague dawley, Oral, Gavage/Intubation, dose end: 25 PND
rabbit [5] = settings: Prenatal developmental toxicity study, new zealand white, Oral, Gavage/Intubation, dose end: 19 GD
rat [6] = settings: Prenatal developmental toxicity study; sprague dawley; Oral; Gavage/Intubation; dose end: 17 GD; group: maternal; systemic / in life observation / clinical signs / [other] + systemic / in life observation / clinical signs / ataxia + systemic / in life …
rat [7] = settings: Multigenerational reproductive toxicity study, sprague dawley, Inhalation, Whole-Body, dose end: 2 generation
rat [8] = settings: Prenatal developmental toxicity study, sprague dawley, Inhalation, Whole-Body, dose end: 15 GD, group: maternal
mouse [9] = settings: Carcinogenicity; other; Oral; Feed; dose end: 21 month; group: systemic; systemic / pathology microscopic / liver / hypertrophy
rat [10] = settings: Prenatal developmental toxicity study, sprague dawley, Oral, Gavage/Intubation, dose end: 15 GD
rat [11] = settings: Multigenerational reproductive toxicity study, other, Oral, Feed, dose end: 2 generation
rabbit [12] = settings: Prenatal developmental toxicity study, other, Oral, Gavage/Intubation, dose end: 18 GD
rat [13] = settings: Prenatal developmental toxicity study, sprague dawley, Oral, Gavage/Intubation, dose end: 15 GD; remark: listed apart in the source
rat [14] = settings: Prenatal developmental toxicity study; sprague dawley; Oral; Gavage/Intubation; dose end: 15 GD; group: developmental; developmental / developmental malformation / bone / absent
mouse [15] = settings: Combined chronic toxicity/carcinogenicity, Oral, Feed, dose end: 2 year, group: systemic
dog = settings: Chronic toxicity, beagle, Oral, Feed, dose end: 24 month, group: systemic
rat [16] = settings: Combined chronic toxicity/carcinogenicity, wistar, Oral, Feed, dose end: 2 year, group: systemic
[17] = group: maternal, reproductive / offspring survival early / dead fetuses / dead fetuses
[18] = group: parental, systemic / in life observation / clinical signs / skin discoloration + systemic / in life observation / clinical signs / urine, …
[19] = group: developmental, developmental / developmental landmark / incisor eruption / incisor eruption + developmental / developmental malformation / bone / delayed …
[20] = group: maternal, systemic / in life observation / body weight / body weight + systemic / in life observation / clinical signs / [other] + systemic / in life …
[21] = group: offspring, systemic / in life observation / body weight / offspring (pup) weight
[22] = group: parental, systemic / organ weight / epididymis / absolute + systemic / organ weight / epididymis / relative to body weight + systemic / organ weight…
[23] = group: reproductive, reproductive / reproductive performance / fertility / fertility + reproductive / reproductive performance / pregnancy / pregnancy + …
[24] = systemic / in life observation / body weight / body weight gain + systemic / organ weight / spleen / absolute + systemic / organ weight / …
[25] = group: developmental, developmental / developmental malformation / bone / [other] + developmental / developmental malformation / bone / full supernumerary + …
[26] = group: maternal, systemic / in life observation / clinical signs / motor activity
[27] = group: maternal, systemic / in life observation / clinical signs / motor activity + systemic / in life observation / body weight / body weight gain
[28] = group: offspring, developmental / offspring survival late / lactation index / lactation index + developmental / offspring survival late / viability index / …
[29] = group: parental, systemic / organ weight / ovary / relative to body weight + systemic / organ weight / ovary / absolute
[30] = group: reproductive, reproductive / reproductive performance / fertility / fertility
[31] = group: developmental, developmental / developmental malformation / bone / incomplete ossification + developmental / developmental malformation / bone / misshapen
[32] = group: developmental, developmental / developmental malformation / bone / incomplete ossification + developmental / developmental malformation / bone / misshapen…
[33] = group: maternal, systemic / in life observation / body weight / body weight gain
[34] = group: developmental, developmental / developmental malformation / bladder / distended + developmental / developmental malformation / bone / supernumerary
[35] = group: maternal, reproductive / reproductive performance / resorptions / resorptions + systemic / in life observation / body weight / body weight gain
[36] = systemic / clinical chemistry / alanine aminotransferase (alt/sgpt) / alanine aminotransferase (alt/sgpt) + systemic / clinical chemistry / …
[37] = systemic / clinical chemistry / urea nitrogen / urea + systemic / clinical chemistry / creatinine / creatinine + systemic / organ weight / …
[38] = systemic / pathology microscopic / thyroid gland / adenoma + systemic / in life observation / body weight / body weight + systemic / organ …

`Oc1ccccc1O` [Catechol] was tested, and the LEL (mouse [1]) was 1200 mg/kg/day, the LOAEL (mouse [1]) was > 1200 mg/kg/day and the NEL (mouse [1]) was < 1200 mg/kg/day. For the same molecule, the NOAEL (mouse [1]) was ≥ 1200 mg/kg/day, the LEL (rat [2]) was 400 mg/kg/day and the LOAEL (rat [2]) was > 400 mg/kg/day. For the same molecule, the NEL (rat [2]) was < 400 mg/kg/day and the NOAEL (rat [2]) was ≥ 400 mg/kg/day.
`CCc1cc(S(=O)(=O)O)c2cc(C(C)C)cccc1-2` [Egualen] was tested, and the LEL (rat [3]) was 200 mg/kg/day, the LOAEL (rat [3]) was > 200 mg/kg/day and the NEL (rat [3]) was 50 mg/kg/day. For the same molecule, the NOAEL (rat [3]) was ≥ 200 mg/kg/day, the LEL (rat [4]; [17]) was 300 mg/kg/day and the LOAEL (rat [4]; [17]) was > 300 mg/kg/day. For the same molecule, the NEL (rat [4]; [17]) was 55 mg/kg/day, the NOAEL (rat [4]; [17]) was ≥ 300 mg/kg/day and the LEL (rat [4]; [18]) was 55 mg/kg/day. For the same molecule, the LOAEL (rat [4]; [18]) was > 300 mg/kg/day, the NEL (rat [4]; [18]) was 10 mg/kg/day and the NOAEL (rat [4]; [18]) was ≥ 300 mg/kg/day. For the same molecule, the LEL (rabbit [5]; [19]) was 135 mg/kg/day, the LOAEL (rabbit [5]; [19]) was > 135 mg/kg/day and the NEL (rabbit [5]; [19]) was 45 mg/kg/day. The NOAEL (rabbit [5]; [19]) was ≥ 135 mg/kg/day, the LEL (rabbit [5]; [20]) was 135 mg/kg/day and the LOAEL (rabbit [5]; [20]) was > 135 mg/kg/day. The NEL (rabbit [5]; [20]) was 45 mg/kg/day, the NOAEL (rabbit [5]; [20]) was ≥ 135 mg/kg/day and the LEL (rat [6]) was 77 mg/kg/day. For the same molecule, the LOAEL (rat [6]) was > 600 mg/kg/day, the NEL (rat [6]) was 10 mg/kg/day and the NOAEL (rat [6]) was ≥ 600 mg/kg/day.
With `O=[N+]([O-])c1ccccc1` [Nitrobenzene] the LEL (rat [7]; [21]) was 40 ppm, the LOAEL (rat [7]; [21]) was > 40 ppm and the NEL (rat [7]; [21]) was 10 ppm. For the same molecule, the NOAEL (rat [7]; [21]) was ≥ 40 ppm, the LEL (rat [7]; [22]) was 40 ppm and the LOAEL (rat [7]; [22]) was > 40 ppm. The NEL (rat [7]; [22]) was 10 ppm, the NOAEL (rat [7]; [22]) was ≥ 40 ppm and the NEL (rat [7]; group: reproductive, reproductive / reproductive performance / fertility / fertility + reproductive / reproductive performance / pregnancy / pregnancy) was 10 ppm. The LEL (rat [7]; [23]) was 40 ppm, the LOAEL (rat [7]; [23]) was > 40 ppm and the NOAEL (rat [7]; [23]) was ≥ 40 ppm. For the same molecule, the LOAEL (rat [8]; [24]) was > 40 ppm, the NEL (rat [8]; [24]) was 1 ppm and the NOAEL (rat [8]; [24]) was ≥ 40 ppm. It also gave an LEL (rat [8]; systemic / organ weight / spleen / absolute + systemic / organ weight / spleen / relative to body weight) of 10 ppm.
`CC(C)(C)C(=O)C(Oc1ccc(Cl)cc1)n1cncn1` (centres undefined) [Triadimefon] was tested, and the LEL (mouse [9]) was 19.6 mg/kg/day, the LOAEL (mouse [9]) was 19.6 mg/kg/day and the NEL (mouse [9]) was < 19.6 mg/kg/day. The NOAEL (mouse [9]) was < 19.6 mg/kg/day, the LOAEL (rat [10]; group: developmental, developmental / developmental malformation / bone / [other]) was 100 mg/kg/day and the NEL (rat [10]; [25]) was 25 mg/kg/day. The NOAEL (rat [10]; [25]) was 50 mg/kg/day, the LEL (rat [10]; group: developmental, developmental / developmental malformation / bone / full supernumerary) was 50 mg/kg/day and the LEL (rat [10]; [26]) was 25 mg/kg/day. For the same molecule, the LOAEL (rat [10]; [26]) was 25 mg/kg/day, the NEL (rat [10]; [27]) was 10 mg/kg/day and the NOAEL (rat [10]; [27]) was 10 mg/kg/day. The LEL (rat [11]; [28]) was 90 mg/kg/day, the LOAEL (rat [11]; [28]) was 90 mg/kg/day and the NEL (rat [11]; [28]) was 2.5 mg/kg/day. It also gave an NOAEL (rat [11]; [28]) of 2.5 mg/kg/day, an NOAEL (rat [11]; group: parental, systemic / organ weight / ovary / relative to body weight + systemic / in life observation / body weight / body weight + systemic / organ …) of 2.5 mg/kg/day and an LOAEL (rat [11]; group: parental, systemic / organ weight / ovary / relative to body weight + systemic / organ weight / epididymis / relative to body weight) of 90 mg/kg/day. For the same molecule, the LEL (rat [11]; [29]) was 2.5 mg/kg/day, the NEL (rat [11]; [29]) was < 2.5 mg/kg/day and the LEL (rat [11]; [30]) was 90 mg/kg/day. For the same molecule, the LOAEL (rat [11]; [30]) was 90 mg/kg/day, the NEL (rat [11]; [30]) was 2.5 mg/kg/day and the NOAEL (rat [11]; [30]) was 2.5 mg/kg/day. It also gave an LEL (rabbit [12]; [31]) of 50 mg/kg/day, an LOAEL (rabbit [12]; [31]) of 50 mg/kg/day and an NEL (rabbit [12]; [32]) of 20 mg/kg/day. The NOAEL (rabbit [12]; [32]) was 20 mg/kg/day, the LEL (rabbit [12]; [33]) was 120 mg/kg/day and the LOAEL (rabbit [12]; [33]) was 120 mg/kg/day. The NEL (rabbit [12]; [33]) was 50 mg/kg/day, the NOAEL (rabbit [12]; [33]) was 50 mg/kg/day and the LEL (rat [13]; [34]) was 90 mg/kg/day. For the same molecule, the LOAEL (rat [13]; [34]) was 90 mg/kg/day, the NEL (rat [13]; [34]) was 30 mg/kg/day and the NOAEL (rat [13]; [34]) was 30 mg/kg/day. It also gave an LEL (rat [13]; [35]) of 90 mg/kg/day, an LOAEL (rat [13]; [35]) of 90 mg/kg/day and an NEL (rat [13]; [35]) of 30 mg/kg/day. The NOAEL (rat [13]; [35]) was 30 mg/kg/day, the LEL (rat [14]) was 10 mg/kg/day and the LOAEL (rat [14]) was 10 mg/kg/day. For the same molecule, the NEL (rat [14]) was 5 mg/kg/day, the NOAEL (rat [14]) was 5 mg/kg/day and the NOAEL (mouse [15]; [36]) was 40 mg/kg/day. The LOAEL (mouse [15]; systemic / clinical chemistry / alanine aminotransferase (alt/sgpt) / alanine aminotransferase (alt/sgpt) + systemic / in life observation…) was 240 mg/kg/day, the LEL (mouse [15]; [37]) was 6.67 mg/kg/day and the NEL (mouse [15]; [37]) was < 6.67 mg/kg/day. It also gave an LOAEL (dog; [36]) of 47 mg/kg/day, an NOAEL (dog; [36]) of 11.4 mg/kg/day and an NEL (dog; systemic / clinical chemistry / alkaline phosphatase (alp/alk) / alkaline phosphatase (alp/alk) + systemic / clinical chemistry / …) of 3.03 mg/kg/day. For the same molecule, the LEL (dog; systemic / pathology microscopic / testes / infiltration cellular / epididymides) was 11.4 mg/kg/day, the LEL (rat [16]; systemic / hematology / leukocyte (wbc) count differential / leukocyte (wbc) + systemic / organ weight / liver / nos) was 22.5 mg/kg/day and the NEL (rat [16]; systemic / hematology / leukocyte (wbc) count differential / leukocyte (wbc) + systemic / organ weight / liver / nos + systemic / clinical …) was 3.6 mg/kg/day. For the same molecule, the LOAEL (rat [16]; [38]) was 114 mg/kg/day and the NOAEL (rat [16]; [38]) was 16.4 mg/kg/day.
